Measured values published in ChEMBL document CHEMBL3603746, “Discovery of New H2S Releasing Phosphordithioates and 2,3-Dihydro-2-phenyl-2-sulfanylenebenzo[d][1,3,2]oxazaphospholes with Improved Antiproliferative Activity” (J Med Chem, 2015).

How the values were obtained:
SK-OV-3 = assay: Cytotoxicity against human SKOV3 cells assessed as inhibition of cell proliferation after 4 days by crystal violet assay; assay type: functional, cell-based; conditions: SK-OV-3, 96 h
[1] = Toxicity in human WI38 cells assessed as inhibition of cell proliferation after 4 days by crystal violet assay
[2] = Induction of H2S release in 10% PBS:MeCN solution at 100 uM incubated at 37 degC in dark condition measured at 72 hrs by 2, 6-dansyl azide probed-based fluorescence assay; assay type: physicochemical; conditions: buffer
[3] = Therapeutic index, ratio of IC50 for human WI38 cells to IC50 for human SKOV3 cells; conditions: WI38 cells and SKOV3 cells
[4] = Therapeutic index, ratio of IC50 for human WI38 cells to IC50 for human MCF7 cells; conditions: WI38 cells and MCF7 cells
[5] = Induction of H2S release in 10% PBS:MeCN solution at 1 mM incubated at 22 degC in dark condition measured at 72 hrs by 2, 6-dansyl azide probed-based fluorescence assay; assay type: physicochemical; conditions: buffer, 1000 µM
MCF7 [6] = assay: Cytotoxicity against human MCF7 cells assessed as inhibition of cell proliferation after 4 days by crystal violet assay; assay type: functional, cell-based; conditions: MCF7, 96 h
[7] = Induction of H2S release in 10% PBS:MeCN solution at 0.5 mM incubated at 37 degC in dark condition measured at 48 hrs by 2, 6-dansyl azide probed-based fluorescence assay relative to 6.9 uM of GYY4137; assay type: physicochemical; conditions: buffer, 500 µM
MCF7 [8] = assay: cells; assay type: functional, cell-based; conditions: Homo sapiens, MCF7, 72 h
Description: Cytotoxicity against human MCF7 cells assessed as inhibition of cell proliferation after 72 hrs by MTT assay

MDA-MB-231 = assay: cells; assay type: functional, cell-based; conditions: Homo sapiens, MDA-MB-231, 72 h
Description: Cytotoxicity against human MDA-MB-231 cells assessed as inhibition of cell proliferation after 72 hrs by MTS assay

[9] = Therapeutic index, ratio of IC50 for human WI38 cells to IC50 for human PC3 cells; conditions: WI38 cells and PC3 cells
[10] = Induction of H2S release in 10% PBS:MeCN solution assessed as ratio of H2S level at 37 degC to H2S level at 22 degC at 0.5 mM incubated in dark condition measured at 96 hrs by 2, 6-dansyl azide probed-based fluorescence assay; assay type: physicochemical; conditions: buffer, 500 µM
[11] = Therapeutic index, ratio of IC50 for human WI38 cells to IC50 for human MBA-MD-231 cells; conditions: WI38 cells and MBA-MD-231 cells
[12] = Induction of H2S release in 10% PBS:MeCN solution at 0.5 mM incubated at 22 degC in dark condition measured at 48 hrs by 2, 6-dansyl azide probed-based fluorescence assay relative to control; assay type: physicochemical; conditions: buffer, 500 µM
[13] = Induction of H2S release in 10% PBS:MeCN solution at 0.5 mM incubated at 22 degC in dark condition measured at 48 hrs by 2, 6-dansyl azide probed-based fluorescence assay relative to 12 uM of GYY4137; assay type: physicochemical; conditions: buffer, 500 µM
[14] = Induction of H2S release in 10% PBS:MeCN solution at 0.5 mM incubated at 37 degC in dark condition measured at 48 hrs by 1 mM 2, 6-dansyl azide probed-based fluorescence assay relative to control; assay type: physicochemical; conditions: buffer, 500 µM
[15] = Induction of H2S release in 10% PBS:MeCN solution at 5 mM incubated at 37 degC in dark condition measured at 96 hrs by 2, 6-dansyl azide probed-based fluorescence assay relative to GYY4137; assay type: physicochemical; conditions: buffer, 5000 µM
[16] = Induction of H2S release in 10% PBS:MeCN solution assessed as ratio of H2S level at 37 degC to H2S level at 22 degC at 5 mM incubated in dark condition measured at 96 hrs by 2, 6-dansyl azide probed-based fluorescence assay; conditions: buffer, 5000 µM
[17] = Induction of H2S release in 10% PBS:MeCN solution at 5 mM incubated at 22 degC in dark condition measured at 96 hrs by 2, 6-dansyl azide probed-based fluorescence assay relative to GYY4137; assay type: physicochemical; conditions: buffer, 5000 µM
[18] = Induction of H2S release in 10% PBS:MeCN solution at 5 mM incubated at 22 degC in dark condition measured at 96 hrs by 2, 6-dansyl azide probed-based fluorescence assay relative to control; conditions: buffer, 5000 µM
[19] = Induction of H2S release in 10% PBS:MeCN solution at 5 mM incubated at 37 degC in dark condition measured at 96 hrs by 0.2 mM 2, 6-dansyl azide probed-based fluorescence assay relative to control; assay type: physicochemical; conditions: buffer, 5000 µM
PC-3 = assay: cells; assay type: functional, cell-based; conditions: Homo sapiens, PC-3, 72 h
Description: Cytotoxicity against human PC3 cells assessed as inhibition of cell proliferation after 72 hrs by MTT assay

[20] = Effective permeability of the compound at 500 uM after 6 hrs by PAMPA
[21] = Effective permeability of the compound at 500 uM after 16 hrs by PAMPA
Hepatocyte = assay: Toxicity in transforming growth factor alpha transgenic mouse hepatocytes at 100 uM after 24 hrs by CellTiter-Glo cell viability assay; assay type: cell-based
[22] = Induction of H2S release in aqueous acetonitrile solution at 400 uM measured over 4 days by probe 21-based fluorescence assay; conditions: buffer, 96 h
[23] = Induction of H2S release in aqueous acetonitrile solution at 200 uM measured over 4 days by probe 21-based fluorescence assay; conditions: buffer, 96 h
[24] = Induction of H2S release in 10% PBS:MeCN solution at 5 mM incubated at 37 degC in dark condition measured at 96 hrs by 1 mM 2, 6-dansyl azide probed-based fluorescence assay relative to control; conditions: buffer, 5000 µM

Row | SMILES | IC50 (SK-OV-3) [µM] | IC50 at 4 days [1] [µM] | Activity [2] | selectivity ratio [3] | selectivity ratio [4] | Activity [5] [µM] | IC50 (MCF7 [6]) [µM] | fold change (FC) [7] | IC50 (MCF7 [8]) [µM] | IC50 (MDA-MB-231) [µM] | selectivity ratio [9] | Ratio [10] | selectivity ratio [11] | %max [12] [%] | fold change (FC) [13] | fold change (FC) [15] | Ratio [16] | fold change (FC) [17] | %max [18] [%] | IC50 (PC-3) [µM] | also measured
1 | Fc1ccc2c(c1)NP(=S)(c1ccc(Oc3ccccc3)cc1)O2 (stereo not given) | 38.1 | 65.6 | Not Active | 1.7 | 1.7 | 5 | 13.6 | – | – | – | – | – | – | – | – | – | – | – | – | – | –
2 | CN1c2ccccc2OP1(=S)c1ccccc1 (stereo not given) | 69.4 | 207 | 20.7 µM | 2.8 | 2.8 | 24.4 | 72.7 | – | – | – | – | – | – | – | – | – | – | – | – | – | –
3 | NCc1ccccc1.S=P(S)(NCc1ccccc1)NCc1ccccc1 | 189 | 266 | – | 1.4 | 1.4 | – | 145 | 2.8 | 218 | 104 | 1.4 | 0.8 | 1.4 | 2.4 | 2 | – | – | – | – | – | %max [14]: 1.9%
4 | C1COCCN1.COP(=S)(S)c1ccc(Oc2ccccc2)cc1 (stereo not given) | 165 | 347 | – | 1.9 | 1.9 | – | 181 | – | 202 | 87 | 1.9 | – | 1.9 | – | – | < 0.1 | 2.7 | < 0.1 | 0.06 | 73.1 | %max [19]: 0.16%
5 | C1COCCN1.S=P(S)(c1ccc(Oc2ccccc2)cc1)N1CCOCC1 (stereo not given) | 326 | 656 | – | 2 | 2 | – | 195 | – | 163 | 95.2 | 2 | – | 2 | – | – | 0.9 | 3.3 | 1.2 | 1.68 | 102 | Papp at 6 h, 500 µM ([20]; PAMPA): 0.015 ×10⁻⁶ cm/s; Papp at 16 h, 500 µM [21]: 0.013 ×10⁻⁶ cm/s; Activity (Hepatocyte): Non-toxic; Activity [22]: 5.47 µM; Activity [23]: 4.14 µM; %max [24]: 5.54%
6 | NCC1CCCCC1.S=P(S)(NCC1CCCCC1)NCC1CCCCC1 | 179 | 287 | – | 1 | 1 | – | 172 | 31.6 | > 500 | > 500 | 1 | 2.7 | 1 | 0.82 | 6.8 | – | – | – | – | – | %max [14]: 21.8%
7 | C1COCCN1.CCCCOP(=S)(S)c1ccc(OC)cc1 (stereo not given) | – | 177 | – | 1.1 | 1.1 | – | 92 | – | 193 | 77.6 | 1.1 | – | 1.1 | – | – | < 0.1 | 3.2 | < 0.1 | 0.04 | 79.1 | %max [19]: 0.12%
8 | C1COCCN1.COc1ccc(P(=S)(S)OC)cc1 (stereo not given) | 430 | – | – | – | – | – | 450 | – | 446 | 216 | – | – | – | – | – | < 0.1 | 2.5 | < 0.1 | 0.06 | > 200 | Peff ([20]; pampa, 6 h, 500 µM): 0.003 ×10⁻⁷ cm/s; Papp at 16 h, 500 µM [21]: 0.0031 ×10⁻⁶ cm/s; Activity (Hepatocyte): Non-toxic; %max [19]: 0.15%
9 | COc1ccc(P2(=S)Nc3cc(F)ccc3O2)cc1 (stereo not given) | 70.8 | > 200 | 33.3 µM | 2.8 | – | 53.8 | 33.6 | – | – | – | – | – | – | – | – | – | – | – | – | – | –
10 | C1COCCN1.S=P(S)(N1CCOCC1)N1CCOCC1 | 267 | 683 | – | 2.6 | 2.6 | – | 221 | 110.4 | 331 | 381 | 2.6 | 1.1 | 2.6 | 67.2 | 56 | – | – | – | – | – | Activity (Hepatocyte): Non-toxic; %max [14]: 76.2%
